Measured values as given in patent US20130090327A1, “Inhibitors of Protein Tyrosine Kinase Activity” (METHYLGENE INC., priority 2011, published 2013).
Several values for one entry are separate records, joined by “and”; a condition that tells them apart may be missing. Equal values may be shown once.

Columns and labels:
[1] = target: T1, VEGFR2 (KDR) (Homo sapiens, UniProt P35968); assay: In Vitro Receptor Tyrosine Kinase Assay (VEGF Receptor KDR); type: biochemical; details: recombinant GST-VEGFR2 806-1356, DELFIA assay, ATP 0.6 uM, enzyme 5 nM; read-out: VEGFR_IC50_UM
T1 construct: made in house; host or cells: Sf9 cells (Spodoptera frugiperda), baculovirus (Bac-to-Bac)
T1 sequence (P35968 806-1356): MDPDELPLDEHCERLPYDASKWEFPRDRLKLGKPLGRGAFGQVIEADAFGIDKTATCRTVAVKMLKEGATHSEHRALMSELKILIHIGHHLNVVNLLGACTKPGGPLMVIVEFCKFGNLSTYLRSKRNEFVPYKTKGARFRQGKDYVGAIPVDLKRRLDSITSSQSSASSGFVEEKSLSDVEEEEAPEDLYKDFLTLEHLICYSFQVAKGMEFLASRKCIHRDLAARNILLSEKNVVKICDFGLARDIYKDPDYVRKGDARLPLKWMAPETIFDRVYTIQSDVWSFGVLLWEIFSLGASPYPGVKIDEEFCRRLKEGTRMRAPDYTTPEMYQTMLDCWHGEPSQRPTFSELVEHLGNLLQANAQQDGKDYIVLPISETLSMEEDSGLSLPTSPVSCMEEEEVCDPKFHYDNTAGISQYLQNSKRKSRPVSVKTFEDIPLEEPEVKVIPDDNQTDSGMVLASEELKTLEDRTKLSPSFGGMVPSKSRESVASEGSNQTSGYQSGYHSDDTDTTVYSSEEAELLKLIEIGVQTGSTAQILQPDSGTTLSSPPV
Excerpt: In Vitro Receptor Tyrosine Kinase Assay (VEGF Receptor KDR)
This test measures the ability of compounds to inhibit the enzymatic activity of recombinant human VEGF receptor enzymatic activity.
A 1.6-kb cDNA corresponding to the catalytic domain of VEGFR2 (KDR) (Genbank accession number AF035121 amino acid 806 to 1356) is cloned into the Pst I site of the pDEST20 Gateway vector (Invitrogen) for the production of a GST-tagged version of that enzyme. This construct is used to generate recombinant baculovirus using the Bac-to-Bac™ system according to the manufacturer's instructions (Invitrogen).
The GST-VEGFR2806-1356 protein is expressed in Sf9 cells (Spodoptera frugiperda) upon infection with recombinant baculovirus construct. Briefly, Sf9 cells grown in suspension and maintained in serum-free medium (Sf900 II supplemented with gentamycin) at a cell density of about 2×10^6 cells/ml are infected with the above-mentioned viruses at a multiplicity of infection (MOI) of 0.1 during 72 hours at 27° C. with agitation at 120 rpm on a rotary shaker. Infected cells are harvested by centrifugation at 398 g for 15 min. Cell pellets are frozen at […] until purification is performed.
All steps described in cell extraction and purification are performed at 4° C. Frozen Sf9 cell pellets infected with the GST-VEGFR2806-1356 recombinant baculovirus are thawed and gently resuspended in Buffer A (PBS pH 7.3 supplemented with 1 μg/ml pepstatin, 2 μg/ml Aprotinin and leupeptin, 50 μg/ml PMSF, 50 μg/ml TLCK and 10 μM E64 and 0.5 mM DTT) using 3 ml of buffer per gram of cells. Suspension is Dounce homogenized and 1% Triton X-100 is added to the homogenate after which it is centrifuged at 22500 g, 30 min., 4° C. The supernatant (cell extract) is used as starting material for purification of GST-VEGFR2806-1356.
The supernatant is loaded onto a GST-agarose column (Sigma) equilibrated with PBS pH 7.3. Following a four column volume (CV) wash with PBS pH 7.3+1% Triton X-100 and 4 CV wash with buffer B (50 mM Tris pH 8.0, 20% glycerol and 100 mM NaCl), bound proteins are step eluted with 5 CV of buffer B supplemented with 5 mM DTT and 15 mM glutathion. GST-VEGFR2806-1356 enriched fractions from this chromatography step are pooled based on U.V. trace i.e. fractions with high O.D.280. Final GST-VEGFR2806-1356 protein preparations concentrations are about 0.7 mg/ml with purity approximating 70%. Purified GST-VEGFR2806-1356 protein stocks are aliquoted and frozen at −80° C. prior to use in enzymatic assay.
Inhibition of VEGFR/KDR is measured in a DELFIA™ assay (Perkin Elmer). The substrate poly(Glu4,Tyr) is immobilized onto black high-binding polystyrene 96-well plates. The coated plates are washed and stored at 4° C. During the assay, the enzyme is pre-incubated with inhibitor and Mg-ATP on ice in polypropylene 96-well plates for 4 minutes, and then transferred to the coated plates. The subsequent kinase reaction takes place at 30° C. for 10-minutes. ATP concentrations in the assay are 0.6 uM for VEGFR/KDR (2× the Km). Enzyme concentration is 5 nM. After incubation, the kinase reactions are quenched with EDTA and the plates are washed. Phosphorylated product is detected by incubation with Europium-labeled anti-phosphotyrosine MoAb. After washing the plates, bound MoAb is detected by time-resolved fluorescence in a Gemini SpectraMax reader (Molecular Devices). Compounds are evaluated over a range of concentrations, and IC50 values (concentration of compounds giving 50% inhibition of enzymatic activity) are determined.

[2] = tested on: choroidal neovascularization (CNV); assay: In Vivo Choroidal Neovascularization (CNV) Model; design: species or system Brown-Norway rats; details: for CNV area, average: group average, Day 10, rat; for CNV area, individual animal: injection on Day 3, measured Day 10, rat; for CNV area % of control / inhibition (CNV area): versus vehicle group, rat
Excerpt: In Vivo Choroidal Neovascularization (CNV) Model
This test measures the capacity of compounds to inhibit CNV progression. CNV is the main cause of severe vision loss in patients suffering from age-related macular degeneration (AMD).
Male Brown-Norway rats (Charles River Japan Co., Ltd.) were used in these studies.
Rats were anesthetized by intraperitoneal injection of pentobarbital, and the right pupil was dilated with 0.5% tropicamide and 0.5% phenylephrine hydrochloride. The right eye received 6 laser burns between retinal vessels using a slit lamp delivery system of Green laser Photocoagulator (Nidex Inc., Japan), and microscope slide glass with 10 mg/mL hyaluronic acid (SIGMA) used as a contact lens. The laser power was 200 mW for 0.1 second and spot diameter was 100 μm. At the time of laser burn, bubble production was observed; which is an indication of rupture of Bruch's membrane which is important for CNV generation.
After animals were anesthetized, and the right pupil dilated (as mentioned above), the right eye of the animal received the compound or vehicle by an injection (3 μL/eye) at doses of 0.3 to 30 nmol/eye on Day 3. The compounds were dissolved or suspended in CBS, PBS, or other adequate vehicles before injection.
On Day 10, the animals were anesthetized with ether, and high molecular weight fluorescein isothiocyanate (FITC)-dextran (SIGMA, 2×106 MW) was injected via a tail vein (20 mg/rat). About 30 min after FITC-dextran injection, animals were euthanized by ether or carbon dioxide, and the eyes were removed and fixed with 10% formaline neutral buffer solution. After over 1 hour of fixation, RPE-choroid-sclera flat mounts were obtained by removing comea, lens and retina from the eyeballs. The flat mounts were mounted in 50% glycerol on a microscope slide, and the portion burned by laser was photographed using a fluorescence microscope (Nikon Corporation, excitation filter: 465-495 nm, absorption filter: 515-555 nm). The CNV area was obtained by measurement of hyper-fluorescence area observed on the photograph using Scion image.
The average CNV area of 6 burns was used as an individual value of CNV area, and the average CNV area of compound treated group was compared with that of the vehicle-treated group.

For COCCN(Cc1ccc(-c2cc3nccc(Oc4ccc(Nc5nc6cc(Cl)ccc6[nH]5)cc4F)c3s2)nc1)C(C)=O [Compound 64], the IC50 [1] was 31 nM, the “CNV area, average” value ([2]; 0.3 nmol/eye) was 0.085 mm^2 and the “CNV area, individual animal” value ([2]; 0.3 nmol/eye) was 0.091 mm^2 and 0.094 mm^2 and 0.045 mm^2 and 0.050 mm^2 and 0.116 mm^2 and 0.147 mm^2 and 0.069 mm^2 and 0.084 mm^2 and 0.072 mm^2. For the same compound, the “CNV area % of control” value ([2]; 0.3 nmol/eye) was 105.6%, the “inhibition (CNV area)” value ([2]; 0.3 nmol/eye) was −5.6 and the “CNV area, average” value ([2]; 1 nmol/eye) was 0.077 mm^2. For the same compound, the “CNV area, individual animal” value ([2]; 1 nmol/eye) was 0.045 mm^2 and 0.092 mm^2 and 0.101 mm^2 (2×) and 0.088 mm^2 and 0.061 mm^2 and 0.109 mm^2 and 0.056 mm^2 and 0.040 mm^2, the “CNV area % of control” value ([2]; 1 nmol/eye) was 95.3% and the “inhibition (CNV area)” value ([2]; 1 nmol/eye) was 4.7. For the same compound, the “CNV area, average” value ([2]; 3 nmol/eye) was 0.065 mm^2, the “CNV area, individual animal” value ([2]; 3 nmol/eye) was 0.070 mm^2 (2×) and 0.019 mm^2 and 0.081 mm^2 and 0.084 mm^2 and 0.062 mm^2 and 0.056 mm^2 and 0.086 mm^2 and 0.054 mm^2 and the “CNV area % of control” value ([2]; 3 nmol/eye) was 80.0%. For the same compound, the “inhibition (CNV area)” value ([2]; 3 nmol/eye) was 20.0, the “CNV area, average” value ([2]; 10 nmol/eye) was 0.045 mm^2 and the “CNV area, individual animal” value ([2]; 10 nmol/eye) was 0.030 mm^2 and 0.003 mm^2 and 0.051 mm^2 and 0.058 mm^2 and 0.064 mm^2 and 0.035 mm^2 and 0.097 mm^2 and 0.039 mm^2 and 0.032 mm^2. The “CNV area % of control” value ([2]; 10 nmol/eye) was 56.2%, the “inhibition (CNV area)” value ([2]; 10 nmol/eye) was 43.8 and the “CNV area, average” value ([2]; 30 nmol/eye) was 0.036 mm^2. For the same compound, the “CNV area, individual animal” value ([2]; 30 nmol/eye) was 0.047 mm^2 and 0.031 mm^2 and 0.036 mm^2 and 0.048 mm^2 and 0.037 mm^2 and 0.027 mm^2 (2×) and 0.051 mm^2 and 0.019 mm^2, the “CNV area % of control” value ([2]; 30 nmol/eye) was 44.4% and the “inhibition (CNV area)” value ([2]; 30 nmol/eye) was 55.6.
With CN(C)[C@H]1CCN(C(=O)c2cc3nccc(Oc4ccc(NC(=O)NC5COC5)cc4F)c3s2)C1 [Compound 107] the IC50 [1] was 56 nM.
For O=C(Nc1ccc(Oc2ccnc3cc(-c4ccc(CN5CCN(C(=O)CO)CC5)cn4)sc23)c(F)c1)NC1COC1 [Compound 88, 1-(3-Fluoro-4-(2-(5-((4-(2-hydroxyacetyl)piperazin-1-yl)methyl)pyridin-2-yl)thieno[3,2-b]pyridin-7-yloxy)phenyl)-3-(oxetan-3-yl)urea], the IC50 [1] was 42 nM.
For CN1CCN(Cc2ccc(-c3cc4nccc(Oc5ccc(NC(=O)NC6CN(C(=O)Cc7ccccc7)C6)cc5F)c4s3)nc2)CC1 [Compound 53], the IC50 [1] was 58 nM.
CC(=O)N1CC(NC(=O)Nc2ccc(Oc3ccnc4cc(-c5ccc(CN6CCC(N)CC6)cn5)sc34)c(F)c2)C1 [Compound 41, 1-(1-Acetylazetidin-3-yl)-3-(4-(2-(5-((4-aminopiperidin-1-yl)methyl)pyridin-2-yl)thieno[3,2-b]pyridin-7-yloxy)-3-fluorophenyl)urea] gave an IC50 [1] of 78 nM.
In the case of CC(=O)N1CC(NC(=O)Nc2ccc(Oc3ccnc4cc(-c5ccc(CN6CCOC6=O)cn5)sc34)c(F)c2)C1 [Compound 113, 1-(1-Acetylazetidin-3-yl)-3-(3-fluoro-4-(2-(5-((2-oxooxazolidin-3-yl)methyl)pyridin-2-yl)thieno[3,2-b]pyridin-7-yloxy)phenyl)urea], the IC50 [1] is reported as 95 nM.
For CC(=O)N1CC(NC(=O)Nc2ccc(Oc3ccnc4cc(-c5ccc(CN6CCCC6=O)cn5)sc34)c(F)c2)C1 [Compound 112, 1-(1-Acetylazetidin-3-yl)-3-(3-fluoro-4-(2-(5-((2-oxopyrrolidin-1-yl)methyl)pyridin-2-yl)thieno[3,2-b]pyridin-7-yloxy)phenyl)urea], the IC50 [1] was 37 nM.
